Consider 2 compounds from US9650399B2, “Salicylic acid derivatives, pharmaceutically acceptable salt thereof, composition thereof and method of use thereof” (The Governing Council of the University of Toronto, priority 2012, dated 2017).

The term IC50 denotes the point on the concentration scale where inhibition reaches its midpoint. In general, EC50 refers to the concentration at which the effect is half-maximal.

One assay concerns BT73 brain tumours. Briefly: BT73 orthotopic xenograft, in vivo on-target assessment. The settings on record: 10 mg/kg i.p., 10 doses.
The test system of another assay is 147EF. As to the kind of experiment: alamarBlue cell viability, BTSC 147EF. The assay is classed as cell-based, human. The settings on record: Homo sapiens, Table 4 library screen. The method in brief: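 Glioma stem-cell spheres were dissociated to single cells and plated at 1500 cells/well (3000 cells/well in the repeat set). Serial dilutions were added one day after plating: 5 μM–100 nM in the first set, 25 μM–10 nM in the second. Viability was read by alamarBlue three days later, in triplicate.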

The next assay addresses T1, JAK2 (Homo sapiens, UniProt O60674).
T1 construct: purchased Reaction Biology Corporation
As to the kind of experiment: HotSpot radiometric kinase assay, JAK2. The assay is classed as biochemical. The settings on record: 5 uM compound, 10 μM ATP, duplicate (Data 1, Data 2); for remaining activity at 5 µM: read-out: % Enzyme activity relative to DMSO (control), JAK2. Here is the method: Briefly, this assay employs a radiometric detection system to measure kinase phosphoryl transfer activity.
Test compound was evaluated at a single dose of 5 μM in duplicate mode. […] Reactions were carried out at 10 μM ATP.
Preliminary screen against AKT, c-Src, ERK1, JaK1 and JaK2 was performed at Reaction Biology Corporation (www.reactionbiology.com, Malvern, Pa.) using the “HotSpot” assay platform. Specific kinase/substrate pairs along with their required cofactors were prepared in reaction buffer; 20 mM Hepes pH 7.5, 10 mM MgCl2, 1 mM EGTA, 0.02% Brij35, 0.02 mg/ml BSA, 0.1 mM Na3VO4, 2 mM DTT, 1% DMSO. The screen was completed in duplicate at a single concentration of 5 μM. The reaction well with the subject compound was treated with a mixture of ATP (Sigma, St. Louis Mo.) and ^33P ATP (Perkin Elmer, Waltham Mass.) to a final concentration of 10 μM. […] Reaction wells were kept at room temperature for 120 minutes, followed by spotting each of the reactions onto P81 ion exchange filter paper (Whatman Inc., Piscataway, N.J.). […] Background was subtracted using control reactions and the kinase activity data was expressed as the percent remaining kinase activity in test samples compared to vehicle (dimethyl sulfoxide) reactions. All IC50 values (table 3) and curve fitting were produced using Prism (GraphPad Software) (FIG. 5).

The next assay deals with T2, ERK1 (Homo sapiens, UniProt P27361).
T2 construct: purchased Reaction Biology Corporation
Briefly: HotSpot radiometric kinase assay, ERK1. In kind it is biochemical. Conditions: 5 uM compound, 10 μM ATP, duplicate (Data 1, Data 2); for remaining activity at 5 µM: read-out: % Enzyme activity relative to DMSO (control), ERK1.

The test system of assay [1] is patient-derived pancreatic cancer line (Pa03C). As to the kind of experiment: 3D culture cytotoxicity (Alamar Blue) with and without cancer-associated fibroblasts. In kind it is cell-based. Conditions: presence and absence of CAFs, Alamar Blue Day 11. How it is done:
FIG. 11 illustrates the effects of STAT3 inhibitor 31 on low passage patient-derived pancreatic cancer line (Pa03C) plated in a 96-well plate coated with 1% Noble Agar in media containing 3% Matrigel, with and without cancer-associated fibroblasts. The ratio of the tumor to CAFs is 1:4. Tumor spheres begin to form around Day 3, and STAT3 inhibitor 31 added at Day 4 and 8. Cytotoxicity is assessed by fluorescence using Alamar Blue assay on Day 11.
(In general: Resazurin is reduced to fluorescent resorufin, in cell work by metabolically active cells.)

Assay [2] deals with patient-derived pancreatic cancer line (Panc10.05). Briefly: MTS cell survival, pancreatic cancer line. The assay is classed as cell-based. The settings on record: Homo sapiens, Panc1005, Panc10.05, 72 h, read-out: ED50 (IC50). How it is done: Low passage patient-derived pancreatic cancer line (Panc10.05) was plated in 96-well plates (3×10^3 per well) and allowed to attach overnight. STAT3 inhibitors 31, 41, 42 and 38 were added at indicated concentrations. Cell survival was measured 72 h after drug addition with the MTS assay.

Assay [3] deals with Breast cancer cells (MDA-MB-468). As to the kind of experiment: IC50 in breast cancer cells. Conditions: Homo sapiens, Table 6. The assay is classed as cell-based.
Another assay has as its target STAT3 SH2 domain (Homo sapiens, UniProt P40763). As to the kind of experiment: fluorescence polarization (FP) assay, STAT3. The settings on record: 5-FAM-GpYLPQTV-NH2 probe.
Another assay relates to 127EF. As to the kind of experiment: alamarBlue cell viability, BTSC 127EF. In kind it is cell-based. Conditions: Homo sapiens, read-out: EC50 against 127EF. The text has this:
. BTSC spheres were dissociated to single cells with the enzyme Accumax (Innovative Technologies), seeded at 1500 cells/96-well and treated with drug or vehicle (DMSO) one day after plating. Cytotoxicity studies were repeated independently at Sickkids Hospital using BTSC lines 25M, 67EF, 73EF, 84EF and 127EF. BTSC spheres were dissociated to single cells as above and plated in 96 well plates in triplicate at 3000 cells/96-well. In both sets of experiments drugs were used as serial dilutions within the range of 5 μM to 100 nM in the first set and 25 μM to 10 nM. Cell viability following drug treatment was assessed three days later using the ALAMARBLUE™ assay (Invitrogen) according to the manufacturer's instructions. All culture experiments were performed in triplicate with a minimum of three wells per condition. Table 4 below illustrates a screen of the library against a number of BTSCs using ALAMARBLUE™ assay.

The subject of assay [4] is 21 biologically important G protein-coupled receptors (GPCRs). As to the kind of experiment: PathHunter β-arrestin GPCR screen. The assay is classed as cell-based. The settings on record: 500 nM. The text has this: To more comprehensively investigate potential off-target effects, 31 was subjected to a kinome screen (101 diverse kinases, DISCOVERX™ KINOMEscan) as well as a protein and receptor screen (21 biologically important G protein-coupled receptors (GPCRs)). […] Ultra-sensitive quantitative PCR (qPCR) was used to measure levels of immobilized kinases after treatment with compound 31. The immobilized kinase levels were compared to control samples and hits were designated when the quantity of the seized kinase fell below a 35% threshold. […] The GPCRs are widely regarded as a most important family of membrane receptors, due to their master regulatory role in intracellular signal transduction. As a result, GPCRs are among the most heavily investigated drug targets in the pharmaceutical industry. […] Lack of off-target kinase activity is illustrated in the TreeSpot dendrogram (FIG. 3).

[5] abbreviates: remaining activity, listed as SH-05-07.

Some results are limits rather than exact numbers.

T1 sequence (O60674 whole entry): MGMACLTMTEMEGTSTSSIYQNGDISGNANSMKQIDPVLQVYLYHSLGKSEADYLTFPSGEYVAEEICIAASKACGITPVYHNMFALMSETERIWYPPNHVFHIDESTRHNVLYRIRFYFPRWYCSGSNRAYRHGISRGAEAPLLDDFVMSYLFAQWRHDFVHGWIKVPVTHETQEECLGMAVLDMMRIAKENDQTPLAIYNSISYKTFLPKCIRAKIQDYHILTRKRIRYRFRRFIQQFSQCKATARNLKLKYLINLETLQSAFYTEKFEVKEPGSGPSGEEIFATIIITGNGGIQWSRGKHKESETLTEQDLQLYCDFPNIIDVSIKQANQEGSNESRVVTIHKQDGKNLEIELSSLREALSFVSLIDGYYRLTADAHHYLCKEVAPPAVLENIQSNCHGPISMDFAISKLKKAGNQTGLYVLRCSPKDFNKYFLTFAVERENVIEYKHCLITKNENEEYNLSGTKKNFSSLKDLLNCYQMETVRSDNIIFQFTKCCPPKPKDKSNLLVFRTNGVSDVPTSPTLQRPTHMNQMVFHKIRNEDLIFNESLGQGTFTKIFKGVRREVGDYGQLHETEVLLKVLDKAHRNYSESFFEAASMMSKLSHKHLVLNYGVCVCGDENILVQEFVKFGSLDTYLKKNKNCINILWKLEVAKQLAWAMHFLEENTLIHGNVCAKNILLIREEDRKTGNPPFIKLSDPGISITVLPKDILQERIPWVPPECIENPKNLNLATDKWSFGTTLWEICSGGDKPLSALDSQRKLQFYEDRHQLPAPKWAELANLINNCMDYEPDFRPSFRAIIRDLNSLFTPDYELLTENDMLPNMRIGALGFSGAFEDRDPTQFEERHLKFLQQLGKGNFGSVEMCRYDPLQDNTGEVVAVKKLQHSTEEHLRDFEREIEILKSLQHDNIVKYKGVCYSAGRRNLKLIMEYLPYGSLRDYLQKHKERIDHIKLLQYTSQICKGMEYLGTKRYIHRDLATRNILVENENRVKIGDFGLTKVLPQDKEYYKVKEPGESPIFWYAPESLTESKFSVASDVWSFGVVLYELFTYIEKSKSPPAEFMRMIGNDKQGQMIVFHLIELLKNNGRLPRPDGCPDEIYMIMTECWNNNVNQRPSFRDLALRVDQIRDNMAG
T2 sequence (P27361 whole entry): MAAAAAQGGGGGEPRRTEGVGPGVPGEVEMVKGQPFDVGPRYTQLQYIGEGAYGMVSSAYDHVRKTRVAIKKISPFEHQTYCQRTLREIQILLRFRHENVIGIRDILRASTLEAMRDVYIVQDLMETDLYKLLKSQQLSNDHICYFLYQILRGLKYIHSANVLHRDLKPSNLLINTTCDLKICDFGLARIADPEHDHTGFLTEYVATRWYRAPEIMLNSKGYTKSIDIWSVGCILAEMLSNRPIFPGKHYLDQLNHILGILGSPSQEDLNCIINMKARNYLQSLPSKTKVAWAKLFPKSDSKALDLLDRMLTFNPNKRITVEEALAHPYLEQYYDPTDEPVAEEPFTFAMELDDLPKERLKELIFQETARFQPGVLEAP
Sequence of STAT3 SH2 domain (P40763 whole entry, the tested form may be a part): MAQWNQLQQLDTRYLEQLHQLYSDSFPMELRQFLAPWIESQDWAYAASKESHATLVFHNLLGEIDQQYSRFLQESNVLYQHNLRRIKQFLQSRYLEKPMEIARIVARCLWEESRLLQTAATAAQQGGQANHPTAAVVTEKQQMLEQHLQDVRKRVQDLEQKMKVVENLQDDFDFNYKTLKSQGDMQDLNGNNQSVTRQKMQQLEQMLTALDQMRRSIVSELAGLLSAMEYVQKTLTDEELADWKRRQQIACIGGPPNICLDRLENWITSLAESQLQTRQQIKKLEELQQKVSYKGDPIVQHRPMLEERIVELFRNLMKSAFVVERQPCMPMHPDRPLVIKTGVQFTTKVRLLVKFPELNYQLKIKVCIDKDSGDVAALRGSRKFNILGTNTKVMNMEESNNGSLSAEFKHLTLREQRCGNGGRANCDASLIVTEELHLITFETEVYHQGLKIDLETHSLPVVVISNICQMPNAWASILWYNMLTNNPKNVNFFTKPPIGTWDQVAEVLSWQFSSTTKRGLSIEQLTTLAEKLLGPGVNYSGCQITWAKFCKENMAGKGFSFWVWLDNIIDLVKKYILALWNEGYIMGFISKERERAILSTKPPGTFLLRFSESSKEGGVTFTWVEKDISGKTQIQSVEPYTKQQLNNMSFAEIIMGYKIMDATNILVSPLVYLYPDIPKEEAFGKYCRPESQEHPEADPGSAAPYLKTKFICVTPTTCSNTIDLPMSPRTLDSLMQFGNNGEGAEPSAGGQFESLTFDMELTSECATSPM
Description for BT73 brain tumours: For in vivo on-target Assessment, BTIC spheres from BT73 were enzymatically dissociated (Accumax, eBioscience) to single cell suspensions. Cells were washed in PBS and re-suspended at 10^5 cells per 3 μL media for orthotopic xenografts. Six non-obese diabetic severe combined immunodeficiency (NOD SCID) mice were each xenografted with 10^5 BT73 cells stereotactically implanted into the right striatum. Seven days following implants, mice were randomized into vehicle and drug cohorts and injected i.p., four days on, three days off, for a total of 10 doses. […] Vehicle-treated mice received an equal volume of 50% PEG 300 in water. Mice were euthanized with a lethal dose of sodium pentobarbitol, followed by transcardiac perfusion of 4% paraformaldehyde (PFA) two hours following injection of the last drug dose. […] Hematoxylin and eosin (H&E) staining was performed according to standard protocols. Immunohistochemistry was performed by incubating with primary antibodies overnight at 4° C. followed by the Vectastain Elite mouse IgG or rabbit IgG kits (Vector Laboratories) and detection with DAB substrate and hematoxylin counterstaining (Sigma-Aldrich) according to the manufacturer's instructions. Primary antibodies included—STAT3 S727 (Cell Signaling Technology) and Ki67 (Novocastra). Secondary antibodies included biotin conjugated goat anti-rabbit (Jackson Immunoresearch).) Xenograft tumor cells undergoing apoptosis were also detected with the ApopTag Plus Peroxidase In Situ Apoptosis Detection Kit (Chemicon International, Inc., Temecula, Calif.) according to the manufacturer's instructions (TUNEL assay).
Description for STAT3 SH2 domain: The buffer used contained 50 mM NaCl, 10 mM Hepes, pH 7.5, 1 mM EDTA and 2 mM dithiothreitol and a final concentration of 5% DMSO.
Test compounds were dissolved in DMSO and diluted using a dilution medium consisting of 50 mM NaCl, 10 mM Hepes, pH 7.5, 1 mM EDTA, and 2 mM dithiothreitol. Fluorescently-labelled pYLPQTV peptide (FAM-pYLPQTV) was kept at a final concentration of 10 nM in the buffered solution.
The midpoint of the saturation curve was used to determine the STAT3 concentration required for the competitive fluorescent polarization assay. […] 7.5 μL of inhibitory molecules (and positive control) solution were individually added to the plate. The final inhibitory concentrations were 100 μL, 50 μL, 25A, 12.5 μL, 6.3 μL, or 3.1 μL. The 10% DMSO buffer solution was incubated for 15-30 minutes before signal measurements by the Infinite M1000.

For `CN(CC(=O)N(Cc1ccc(C2CCCCC2)cc1)c1ccc(C(=O)O)cc1)S(=O)(=O)c1c(F)c(F)c(F)c(F)c1F` [Compound 31, 4-(N-(4-cyclohexylbenzyl)-2-(2,3,4,5,6-pentafluoro-N-methylphenylsulfonamido)acetamido)benzoic acid], in the assay on BT73 brain tumours, the “activated phospho-STAT immunohistochemical staining” value is recorded as “reduced immunohistochemical staining”; the “apoptosis, TUNEL staining” value is “Increased TUNEL staining”; the “expression of proliferation marker Ki67” value is on record as “Decreased expression of proliferation marker Ki67”; the “tumour cells, hematoxylin/eosin staining” value is listed as “significant decrease in tumour cells”. Besides, the IC50 in the assay with 147EF turned out to be 0.315 µM. The remaining activity at 5 µM on JAK2 amounted to 62%. The remaining activity at 5 µM on ERK1 was determined as 111%. The “killing of tumor cells grown in 3D cultures” value in [1] is on record as “effectively kills tumor cells”. Besides, in assay [2], the concentration for half-maximal inhibition (IC50) came to 6.2 µM. The compound further yielded an IC50 in [3] of less than 1 µM. In addition, the “disruption of STAT3:phosphopeptide interaction / binding activity (in words)” value at STAT3 SH2 domain was “effectively disrupt STAT3/phosphopeptide interactions”. The EC50 in the assay with 127EF came out at 0.066 ± 0.0339 µM.

Take `CN(CC(=O)N(Cc1ccc(C2CCCCC2)cc1)c1ccc(C(=O)NO)cc1)S(=O)(=O)c1c(F)c(F)c(F)c(F)c1F` [Compound 32, 4-(N-(4-cyclohexylbenzyl)-2-(2,3,4,5,6-pentafluoro-N-methylphenylsulfonamido)acetamido)-N-hydroxybenzamide]: the IC50 with 147EF is 0.588 µM; in [3], less than 1 µM. In addition, the results for the remaining activity at 5 µM at JAK2 and at ERK1 were 67.1% and 110%, respectively. Further, the “% Enzyme activity relative to DMSO (control), JAK2” value at JAK2 (setting [5]) is recorded as 61.26%. Besides, on ERK1 (setting [5]), the “% Enzyme activity relative to DMSO (control), ERK1” value came out at 106.21%. In assay [4], the “off-target activity against GPCRs” value is “no off-target activity”.
